e = 2'-O-(2-methoxyethyl) (MOE); d = 2'-deoxy (DNA)

For one data set, the system named is human Factor XI mRNA. Kind of data set: Dose-dependent antisense inhibition in HepG2 cells, lipofectin (Example 2). It is filed as cell-based. The settings on record: 9.375 nM, approximately 16 hours. On the procedure: Cells were plated at a density of 10,000 cells per well and transfected using lipofectin reagent with 9.375 nM, 18.75 nM, 37.5 nM, 75 nM, and 150 nM concentrations of antisense oligonucleotide, as specified in Table 3. After a treatment period of approximately 16 hours, RNA was isolated from the cells and Factor XI mRNA levels were measured by quantitative real-time PCR. Human Factor XI primer probe set RTS 2966 (forward sequence: […], incorporated herein as SEQ ID NO: 3; reverse sequence: […], incorporated herein as SEQ ID NO: 4; probe sequence: TTGTCTACTGAAGCACACCCAAACAGGGAX, wherein X is the fluorophore, incorporated herein as SEQ ID NO: 5) was used to measure mRNA levels. Factor XI mRNA levels were adjusted according to total RNA content, as measured by RIBOGREEN®. Results are presented as percent inhibition of Factor XI, relative to untreated control cells.
Consider “412224 (antisense GCATTGGTGCACAGTTTCTG; sugars from the 5' end e5 d10 e5, backbone and methylation of C not given here) [compound 412224]”, for which the “percent inhibition of Factor XI” value was 24%.
For “413481 (antisense GGTGCACAGTTTCTGGCAGG; sugars from the 5' end e5 d10 e5, backbone and methylation of C not given here) [compound 413481]”, the “percent inhibition of Factor XI” value worked out at 22%.
Same read-out and setting: the figure for “412225 (antisense GCAGCGGACGGCATTGGTGC; sugars from the 5' end e5 d10 e5, backbone and methylation of C not given here) [compound 412225]” is 32%.

The data set is the same for the next values; noted with them: 18.75 nM, approximately 16 hours.
With “412224 (antisense GCATTGGTGCACAGTTTCTG; sugars from the 5' end e5 d10 e5, backbone and methylation of C not given here) [compound 412224]”, the “percent inhibition of Factor XI” value turned out to be 45%.
On the same count and under the same terms, under “413481 (antisense GGTGCACAGTTTCTGGCAGG; sugars from the 5' end e5 d10 e5, backbone and methylation of C not given here) [compound 413481]” stands 38%; under “412225 (antisense GCAGCGGACGGCATTGGTGC; sugars from the 5' end e5 d10 e5, backbone and methylation of C not given here) [compound 412225]”, 42%.

The same data set, now with this note: 37.5 nM, approximately 16 hours.
Consider “412224 (antisense GCATTGGTGCACAGTTTCTG; sugars from the 5' end e5 d10 e5, backbone and methylation of C not given here) [compound 412224]”, for which the “percent inhibition of Factor XI” value turned out to be 57%.
Still for that read-out and setting: under “413481 (antisense GGTGCACAGTTTCTGGCAGG; sugars from the 5' end e5 d10 e5, backbone and methylation of C not given here) [compound 413481]” stands 56%; under “412225 (antisense GCAGCGGACGGCATTGGTGC; sugars from the 5' end e5 d10 e5, backbone and methylation of C not given here) [compound 412225]”, 65%.

The data set is the same for the next values; noted with them: 75 nM, approximately 16 hours.
Regarding “412224 (antisense GCATTGGTGCACAGTTTCTG; sugars from the 5' end e5 d10 e5, backbone and methylation of C not given here) [compound 412224]”, the “percent inhibition of Factor XI” value was found to be 70%.
Same read-out and setting: the figure for “413481 (antisense GGTGCACAGTTTCTGGCAGG; sugars from the 5' end e5 d10 e5, backbone and methylation of C not given here) [compound 413481]” is 67%; for “412225 (antisense GCAGCGGACGGCATTGGTGC; sugars from the 5' end e5 d10 e5, backbone and methylation of C not given here) [compound 412225]” it is 78%.

The same data set, now with this note: 150 nM, approximately 16 hours.
As for “412224 (antisense GCATTGGTGCACAGTTTCTG; sugars from the 5' end e5 d10 e5, backbone and methylation of C not given here) [compound 412224]”, the “percent inhibition of Factor XI” value is on record as 81%.
Still for that read-out and setting: the figure for “413481 (antisense GGTGCACAGTTTCTGGCAGG; sugars from the 5' end e5 d10 e5, backbone and methylation of C not given here) [compound 413481]” is 83%; for “412225 (antisense GCAGCGGACGGCATTGGTGC; sugars from the 5' end e5 d10 e5, backbone and methylation of C not given here) [compound 412225]” it is 73%.

Another data set deals with human Factor XI mRNA. Kind of data set: Antisense inhibition in HepG2 cells by microwalk gapmers, 75 nM, lipofectin (Example 3). It is filed as cell-based. The settings on record: HepG2 cells, 75 nM, oligonucleotides targeted to nucleobases 1275 to 1318 of SEQ ID NO: 1. The gist of the method:
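HepG2 cells (10,000 per well) were transfected with 75 nM gapmer using lipofectin and treated for about 24 h. Factor XI mRNA was quantified by real-time PCR, normalized to RiboGreen total RNA and expressed as percent inhibition versus untreated controls.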
Take “412224 (antisense GCATTGGTGCACAGTTTCTG; sugars from the 5' end e5 d10 e5, backbone and methylation of C not given here) [compound 412224]”: the “% inhibition of human Factor XI mRNA levels” value worked out at 93%.
Still for that read-out and setting: under “416852 (antisense TGGTGCACAGTTTCTGGCAG; 5-10-5 gapmer, wing sugar chemistry not given here, further chemistry not given here) [compound 416852]” stands 84%.
With “416860 (antisense CGGACGGCATTGGTGCACAG; 5-10-5 gapmer, wing sugar chemistry not given here, further chemistry not given here) [compound 416860]”, the “% inhibition of human Factor XI mRNA levels” value was 88%.
Still for that read-out and setting: the figure for “416851 (antisense GTGCACAGTTTCTGGCAGGC; 5-10-5 gapmer, wing sugar chemistry not given here, further chemistry not given here) [compound 416851]” is 88%.
Still for that read-out and setting: under “412225 (antisense GCAGCGGACGGCATTGGTGC; sugars from the 5' end e5 d10 e5, backbone and methylation of C not given here) [compound 412225]” stands 86%.

The test system of the next data set is human Factor XI mRNA. The data set is described as follows: Antisense inhibition in HepG2 cells by microwalk gapmers, 8,000 nM, electroporation (Example 14). It is filed as cell-based. The conditions noted are these: HepG2 cells, 8,000 nM. The gist of the method:
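Percent reduction of Factor XI transcript, relative to untreated controls, by real-time PCR with RIBOGREEN normalisation. Readout taken about 24 h after electroporating HepG2 cells with 8,000 nM oligonucleotide. Gapmers are 5-10-5, 5-8-5 or 6-8-6 MOE wings, phosphorothioate backbone.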
As to “412224 (antisense GCATTGGTGCACAGTTTCTG; sugars from the 5' end e5 d10 e5, backbone and methylation of C not given here) [compound 412224]”, the “Percent inhibition of human Factor XI mRNA levels” value stood at 84%.
Same read-out and setting: the figure for “416852 (antisense TGGTGCACAGTTTCTGGCAG; 5-10-5 gapmer, wing sugar chemistry not given here, further chemistry not given here) [compound 416852]” is 87%; for “416860 (antisense CGGACGGCATTGGTGCACAG; 5-10-5 gapmer, wing sugar chemistry not given here, further chemistry not given here) [compound 416860]” it is 89%.
On the same count and under the same terms, under “413481 (antisense GGTGCACAGTTTCTGGCAGG; sugars from the 5' end e5 d10 e5, backbone and methylation of C not given here) [compound 413481]” stands 82%.
As for “416851 (antisense GTGCACAGTTTCTGGCAGGC; 5-10-5 gapmer, wing sugar chemistry not given here, further chemistry not given here) [compound 416851]”, the “Percent inhibition of human Factor XI mRNA levels” value is given as 89%.
The same measure, in the same setting: under “412225 (antisense GCAGCGGACGGCATTGGTGC; sugars from the 5' end e5 d10 e5, backbone and methylation of C not given here) [compound 412225]” stands 86%.

In a further data set the test system is human Factor XI mRNA. Kind of data set: Dose-dependent inhibition and IC50 in HepG2 cells, electroporation (Example 15). The conditions noted are these: electroporation, 123.47 nM. It is filed as cell-based. As to the method: Cells were plated at a density of 20,000 cells per well and transfected using electroporation with 123.46 nM, 370.37 nM, 1,111.11 nM, 3,333.33 nM and 10,000 nM concentrations of antisense oligonucleotide, as specified in Table 52. After a treatment period of approximately 16 hours, RNA was isolated from the cells and Factor XI mRNA levels were measured by quantitative real-time PCR. Human Factor XI primer probe set RTS 2966 was used to measure mRNA levels. Factor XI mRNA levels were adjusted according to total RNA content, as measured by RIBOGREEN. Results are presented as percent inhibition of Factor XI, relative to untreated control cells.
Take “416860 (antisense CGGACGGCATTGGTGCACAG; 5-10-5 gapmer, wing sugar chemistry not given here, further chemistry not given here) [compound 416860]”: the “percent inhibition of Factor XI mRNA” value is 0%.
Take “416851 (antisense GTGCACAGTTTCTGGCAGGC; 5-10-5 gapmer, wing sugar chemistry not given here, further chemistry not given here) [compound 416851]”: the “percent inhibition of Factor XI mRNA” value stood at 13%.

Staying with this data set, now noted: electroporation, 370.37 nM.
Consider “416860 (antisense CGGACGGCATTGGTGCACAG; 5-10-5 gapmer, wing sugar chemistry not given here, further chemistry not given here) [compound 416860]”, for which the “percent inhibition of Factor XI mRNA” value worked out at 28%.
Same read-out and setting: the figure for “416851 (antisense GTGCACAGTTTCTGGCAGGC; 5-10-5 gapmer, wing sugar chemistry not given here, further chemistry not given here) [compound 416851]” is 35%.

Still in this data set, the particulars now being: electroporation, 1,111.11 nM.
With “416860 (antisense CGGACGGCATTGGTGCACAG; 5-10-5 gapmer, wing sugar chemistry not given here, further chemistry not given here) [compound 416860]”, the “percent inhibition of Factor XI mRNA” value stood at 39%.
Still for that read-out and setting: the figure for “416851 (antisense GTGCACAGTTTCTGGCAGGC; 5-10-5 gapmer, wing sugar chemistry not given here, further chemistry not given here) [compound 416851]” is 36%.

Still in this data set, the particulars now being: electroporation, 3,333.33 nM.
In the case of “416860 (antisense CGGACGGCATTGGTGCACAG; 5-10-5 gapmer, wing sugar chemistry not given here, further chemistry not given here) [compound 416860]”, the “percent inhibition of Factor XI mRNA” value came to 41%.
In the case of “416851 (antisense GTGCACAGTTTCTGGCAGGC; 5-10-5 gapmer, wing sugar chemistry not given here, further chemistry not given here) [compound 416851]”, the “percent inhibition of Factor XI mRNA” value amounted to 64%.

Still in this data set, the particulars now being: electroporation, 10,000.0 nM.
On to “416860 (antisense CGGACGGCATTGGTGCACAG; 5-10-5 gapmer, wing sugar chemistry not given here, further chemistry not given here) [compound 416860]”, for which the “percent inhibition of Factor XI mRNA” value is 40%.
Still for that read-out and setting: the figure for “416851 (antisense GTGCACAGTTTCTGGCAGGC; 5-10-5 gapmer, wing sugar chemistry not given here, further chemistry not given here) [compound 416851]” is 72%.

Tested on in the next data set: not given
Test: not given
On the set-up: species or system Sprague-Dawley rats. The conditions noted are these: rat, in vivo, sc, 20 mg/kg. On the procedure: The concentration of the full-length oligonucleotide as well as the total oligonucleotide concentration (including the degraded form) was measured. The method used is a modification of previously published methods (Leeds et al., 1996; Geary et al., 1999) which consist of a phenol-chloroform (liquid-liquid) extraction followed by a solid phase extraction. An internal standard (ISIS 355868, a 27-mer 2′-O-methoxyethyl modified phosphorothioate oligonucleotide, […], designated herein as SEQ ID NO: 270) was added prior to extraction. […] The results are presented in Tables 98 and 99, expressed as μg/g liver or kidney tissue.
Turning to “412224 (antisense GCATTGGTGCACAGTTTCTG; sugars from the 5' end e5 d10 e5, backbone and methylation of C not given here) [compound 412224]”, the “Half-life in the liver and kidney” value is 17 days.
Regarding “416852 (antisense TGGTGCACAGTTTCTGGCAG; 5-10-5 gapmer, wing sugar chemistry not given here, further chemistry not given here) [compound 416852]”, the “Half-life in the liver and kidney” value was found to be 28 days.
Still for that read-out and setting: the figure for “416860 (antisense CGGACGGCATTGGTGCACAG; 5-10-5 gapmer, wing sugar chemistry not given here, further chemistry not given here) [compound 416860]” is 21 days; for “413481 (antisense GGTGCACAGTTTCTGGCAGG; sugars from the 5' end e5 d10 e5, backbone and methylation of C not given here) [compound 413481]” it is 21 days.
On the same count and under the same terms, the figure for “416851 (antisense GTGCACAGTTTCTGGCAGGC; 5-10-5 gapmer, wing sugar chemistry not given here, further chemistry not given here) [compound 416851]” is 24 days; for “412225 (antisense GCAGCGGACGGCATTGGTGC; sugars from the 5' end e5 d10 e5, backbone and methylation of C not given here) [compound 412225]” it is 21 days.
